PMC4703387, “Identification of the Calmodulin-Binding Domains of Fas Death Receptor” (PLoS ONE, 2016)
Where no end group is shown, it is not given here.

Tests used:
Ca^2+/CaM [1] = target: T1, Ca^2+/CaM (Homo sapiens, UniProt P0DP23); test: Isothermal titration calorimetry (ITC), Ca^2+/CaM titrated into peptide; type: binding
T1 construct: made in house
Description: Thermodynamic parameters of Ca^2+/CaM binding to Fas-Pep1 and Fas-Pep2 peptides were determined using an Auto-iTC200 microcalorimeter (Malvern Instruments). […] Heat of reaction of Ca^2+/CaM was measured over 19 injections at 25°C for Fas-Pep1 or 35°C for Fas-Pep2. Heat of dilution was measured by titrating Ca^2+/CaM into buffer. Data analysis was performed using the Microcal Origin package (ver. 8.1). Baseline corrections were performed by subtracting heat of dilution from the raw Ca^2+/CaM-peptide titration data. Binding curves were analyzed and dissociation constants (Kd) were determined by nonlinear least-square fitting of the baseline-corrected data. The formula used to fit the data as one binding site is: ΔQ(i)=Q(i)+(dVi/Vo)[(Q(i)+Q(i−1))/2]–Q(i–1) where ΔQ(i) is the heat released at i^th injection, Q(i) is the total heat content of the solution, dVi is injection volume, and Vo is total volume. Three replicate titration experiments were typically performed for each peptide.
Although it is recognized that the most frequent mechanism of CaM binding to target proteins involves the hydrophobic surfaces on the N- and C-terminal lobes,[23] electrostatic interactions also contribute to the formation and stabilization of CaM-protein complexes since CaM is acidic and CaM-binding motifs are often basic.[44, 45] The thermodynamic parameters of binding and the relative contribution of hydrophobic vs. electrostatic factors are often assessed by ITC methods, yielding various parameters such as dissociation constant (Kd), stoichiometry (n), enthalpy change (ΔH°) and entropy change (ΔS°). The thermodynamic parameters of Ca^2+/CaM binding to Fas-Pep1 and Fas-Pep2 were assessed by ITC.

Ca^2+/CaM-N = target: T2, Ca^2+/CaM-N (Homo sapiens, UniProt P0DP23); test: NMR titration (2D 1H-15N HSQC) of isolated N-terminal lobe; type: binding; conditions: 1H-15N HSQC titration
T2 construct: ^15N-labled samples of the isolated Ca^2+/CaM-N and Ca^2+/CaM-C domains; made in house
Description: NMR data were collected at 35°C on a Bruker Avance II (700 MHz ^1H) spectrometer equipped with a cryogenic triple-resonance probe, processed with NMRPIPE [35] and analyzed with NMRVIEW [36] or CCPN Analysis. […] For signal assignments of the complexes, ^13C-, ^15N-, or ^13C-/^15N-labeled Ca^2+/CaM at ~400–500 μM was mixed with unlabeled Fas-Pep1 (in 100% DMSO-d6) or Fas-Pep2 at 1.5:1 peptide:Ca^2+/CaM. […] The backbone atom resonances of Ca^2+/CaM complexes with Fas-Pep1 and Fas-Pep2 were assigned using HNCA, HN(CO)CA, HNCACB, HNCO, HN(CO)CACB and ^15N-edited NOESY-HSQC and TOCSY-HSQC experiments. These experiments have been also collected on ^15N-, or ^13C-/^15N-labeled Fas-Pep2 in complex with unlabeled Ca^2+/CaM to confirm the α-helical character of Fas-Pep2 when bound to Ca^2+/CaM. […] Combined ^1H-^15N chemical shift changes were calculated as ΔδHN = [(ΔδH)^2+(ΔδN/5)^2]^1/2, where ΔδH and ΔδN are the ^1H and ^15N chemical shift changes, respectively. Kd values were calculated by non-linear least-square fitting algorithm in Origin software (OriginLab, Northampton, MA) using the equation: ΔδHN=ΔδHN^max((Kd+L0+P0)−((Kd+L0+P0)^2−4*P0*L0)^0.5)/(2*P0) where ΔδHN^max is the chemical shift change between complex and free protein, L0 total concentration of ligand, and P0 total concentration of protein. […]

Ca^2+/CaM [2] = target: T1, Ca^2+/CaM; test: Circular dichroism (CD) spectroscopy; type: physicochemical; conditions: 25°C, 10 mM HEPES (pH 7), 50 mM KCl, 2.5 mM CaCl2
Description: CD spectra were acquired on a Jasco J815 spectropolarimeter at 25°C from 260 to 185 nm. Scanning rate was set to 50 nm/min. Loading concentrations were ~16–20 μM for free peptides, 18 μM for free Ca^2+/CaM and 10 μM for the complexes in a buffer containing 10 mM HEPES (pH 7), 50 mM KCl, and 2.5 mM CaCl2. The background signal from the buffer solution was subtracted from each spectrum. Ca^2+/CaM complexes with peptides were run on gel filtration column (as described above) to ensure high purity and homogeneity prior to collection of the CD spectra.

Ca^2+/CaM [3] = target: T1, Ca^2+/CaM; test: NMR (HSQC, 3D 15N-edited HSQC-NOESY, TALOS+) of 15N-/13C-labeled Fas-Pep2; type: physicochemical
Description: NMR data were collected at 35°C on a Bruker Avance II (700 MHz ^1H) spectrometer equipped with a cryogenic triple-resonance probe, processed with NMRPIPE [35] and analyzed with NMRVIEW [36] or CCPN Analysis. […] For signal assignments of the complexes, ^13C-, ^15N-, or ^13C-/^15N-labeled Ca^2+/CaM at ~400–500 μM was mixed with unlabeled Fas-Pep1 (in 100% DMSO-d6) or Fas-Pep2 at 1.5:1 peptide:Ca^2+/CaM. […] The backbone atom resonances of Ca^2+/CaM complexes with Fas-Pep1 and Fas-Pep2 were assigned using HNCA, HN(CO)CA, HNCACB, HNCO, HN(CO)CACB and ^15N-edited NOESY-HSQC and TOCSY-HSQC experiments. These experiments have been also collected on ^15N-, or ^13C-/^15N-labeled Fas-Pep2 in complex with unlabeled Ca^2+/CaM to confirm the α-helical character of Fas-Pep2 when bound to Ca^2+/CaM. The chemical shifts of Ca^2+/CaM-bound Fas-Pep2 were used to predict its order parameters and secondary structure content in TALOS+.[38] Combined ^1H-^15N chemical shift changes were calculated as ΔδHN = [(ΔδH)^2+(ΔδN/5)^2]^1/2, where ΔδH and ΔδN are the ^1H and ^15N chemical shift changes, respectively. Kd values were calculated by non-linear least-square fitting algorithm in Origin software (OriginLab, Northampton, MA) using the equation: ΔδHN=ΔδHN^max((Kd+L0+P0)−((Kd+L0+P0)^2−4*P0*L0)^0.5)/(2*P0) where ΔδHN^max is the chemical shift change between complex and free protein, L0 total concentration of ligand, and P0 total concentration of protein.
Far-UV CD spectra of Ca^2+/CaM, Fas-Pep1, Fas-Pep2 and their complexes have been obtained to determine whether formation of the complexes induce any major changes in the secondary structures of the peptides and/or Ca^2+/CaM protein. […] The CD spectra of the complexes are similar to those of Ca^2+/CaM with features distinctive of an α-helical type. Relatively minor changes are observed in the CD signal of Ca^2+/CaM upon binding to FasDD peptides. […] Induction of the α-helical character of Fas-Pep2 upon binding to Ca^2+/CaM has been confirmed by NMR spectroscopy. […]

[4] = as Kd (ITC), 25°C Fas-Pep1, 35°C Fas-Pep2

## VQDTAEQKVQLLRNWHQLHGKKEAYDTLIKDLKKANLC [Fas-Pep2]
Ca^2+/CaM [1]; ITC
  thermodynamic driving force of binding: enthalpically driven
Ca^2+/CaM [1]; as Kd (ITC)
  n (stoichiometry, ITC): 0.9
Ca^2+/CaM [1]; [4]
  ΔH°: -14.2 kcal/mol
  ΔS°: -18.8 cal/mol/K
Ca^2+/CaM-N
  CSPs on Ca^2+/CaM-N: significant CSPs for numerous residues
Ca^2+/CaM [2]; complex 10 μM
  change in CD signal at 208 and 222 nm of Ca^2+/CaM on peptide binding: An increase in the intensity of the CD signal at 208 and 222 nm
Ca^2+/CaM [2]; far-UV CD, ~16–20 μM peptide, 18 μM Ca^2+/CaM
  secondary structure of free peptide/protein: random coil
Ca^2+/CaM [3]; 3D 15N-edited HSQC-NOESY
  conformation when bound to Ca^2+/CaM (NOESY): adopts an α-helical conformation upon binding to CaM
Ca^2+/CaM [3]; 15N-Fas-Pep2, 1H-15N HSQC, 35°C, pH 7.0
  conformation of free peptide (NMR): lack of ordered structure
Ca^2+/CaM [3]; prediction from measured chemical shifts
  conformation when bound to Ca^2+/CaM (chemical shift index, TALOS+): adopts an α-helical conformation upon binding to Ca^2+/CaM
